Assay results reported in patent US20110288082A1, “METHODS AND COMPOSITIONS FOR INHIBITION OF THE TRANSITIONAL ENDOPLASMIC RETICULUM ATPASE” (priority 2010, published 2011).
Like-named read-outs stand apart in the source and are kept apart here.

Experiments:
p97 = p97 (Homo sapiens, UniProt P55072); test: p97 ATPase assay (Kinase Glo Plus; biomol green for compounds that interfere with luciferase); format: biochemical
Method: Assay Buffer (20 μL of 2.5× concentration, where 1×=50 mM Tris pH 7.4, 20 mM MgCl2, 1 mM EDTA, 0.5 mM TCEP) was dispensed into each well of a 96 well plate. Purified p97 (25 μL of 50 μM) was diluted in 975 μL, of 1× Assay Buffer and 10 μL was dispensed in each well. Test compound (10 μL) or 5% DMSO (10 μL) was then added to each well and the plate was incubated at room temperature for 10 min. The ATPase assay was carried out by adding to each well 10 μL of 500 μM ATP (pH 7.5), incubating at room temperature for 60 min, and then adding 50 μL Kinase Glo Plus reagent (Promega) followed by a final 10 min incubation at room temperature in the dark. Luminescence was read on an Analyst AD (Molecular Devices). Compounds were assayed at a range of concentrations (0, 0.048, 0.24, 1.2, 6, 30 μM) in triplicate. The percent of remaining activity for each reaction was calculated using the following mathematical expression: ((Test Compound-High Control)/(Low Control-High Control))*100. Test_Compound is defined as wells containing test compound, Low_Control is defined as wells containing DMSO, High_Control is defined as wells containing no p97 protein. […] The result was expressed as mean +/− standard error. For assays with Myriad 12 and 19, 100 μL of biomol green reagent (Enzo Life Sciences) was added to each well instead of kinase Glo Plus (Promega) and absorbance at 630 nm was measured. This was done because these compounds interfered with luciferase activity. […]

[1] = test system: p97-dependent Ub^G76V-GFP degradation in HeLa cells; test: Ub^G76V-GFP degradation (turn-over) assay; format: cell-based, human; settings: Homo sapiens, HeLa
Method: Ub^G76V-GFP Degradation Assay
Two GFP images with 100 ms exposure time per well were acquired and the average GFP intensity per area of a HeLa cell was determined by using MetaXpress software. Mean GFP intensity of 300-500 cells was calculated using Excel. Normalized GFP intensity was calculated using the following formula: (Test compound−Background)/(Basal GFP intensity—Background). Where: Test compound is defined as Mean GFP intensity of Ub^G76V-GFP-expressing cells treated with the test compound. Background is defined as background GFP intensity of HeLa cells. Basal GFP intensity is defined as mean GFP intensity of Ub^G76V-GFP-expressing cells treated with DMSO. […] The percent of remaining k for each compound is calculated using the following formula: (Test compound/DMSO control)*100. Where: Test_compound is defined as k determined from wells containing test compound, DMSO control is defined as k determined from wells containing DMSO.

[2] = purified p97, ATP, 60 min room temperature, mean +/- standard error
[3] = read-out: IC50 (μM) Ub^G76V-GFP turn over, Ub^G76V-GFP-expressing HeLa cells, degradation rate constant k from 90 to 180 min, mean +/- standard error
[4] = read-out: IC50 (μM) Ub^G76V-GFP turn over, p97-dependent Ub^G76V-GFP degradation turn-over assay

Chain of p97 (P55072 2-806 limits assumed): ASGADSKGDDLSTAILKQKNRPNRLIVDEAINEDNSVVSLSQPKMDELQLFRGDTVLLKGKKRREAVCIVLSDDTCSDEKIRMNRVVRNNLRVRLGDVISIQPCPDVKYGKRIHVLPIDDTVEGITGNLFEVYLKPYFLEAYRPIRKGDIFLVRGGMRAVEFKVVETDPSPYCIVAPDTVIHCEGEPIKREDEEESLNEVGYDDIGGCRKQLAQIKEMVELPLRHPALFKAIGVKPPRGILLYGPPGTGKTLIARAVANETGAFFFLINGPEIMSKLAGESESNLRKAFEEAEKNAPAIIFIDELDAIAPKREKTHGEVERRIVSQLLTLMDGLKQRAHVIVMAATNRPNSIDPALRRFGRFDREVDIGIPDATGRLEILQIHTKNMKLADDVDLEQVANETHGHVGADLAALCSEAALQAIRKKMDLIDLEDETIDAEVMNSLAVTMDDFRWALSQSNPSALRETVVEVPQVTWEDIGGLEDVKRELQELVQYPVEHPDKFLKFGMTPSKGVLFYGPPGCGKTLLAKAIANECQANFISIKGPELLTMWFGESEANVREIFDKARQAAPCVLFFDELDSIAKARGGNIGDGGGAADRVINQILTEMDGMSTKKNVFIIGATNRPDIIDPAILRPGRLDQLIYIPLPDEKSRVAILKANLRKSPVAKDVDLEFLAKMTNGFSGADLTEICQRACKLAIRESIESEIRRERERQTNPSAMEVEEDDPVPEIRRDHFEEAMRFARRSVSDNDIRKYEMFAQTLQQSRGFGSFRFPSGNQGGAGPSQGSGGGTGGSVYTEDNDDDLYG

Compound	IC50 (p97; [2])	IC50 [1, 3]	IC50 (p97; p97 ATPase assay)	IC50 [1, 4]
Clc1ccc(-c2nc(NCc3ccccc3)c3ccccc3n2)cc1Cl [I-11]	7.1 ± 0.4 µM	37 ± 6 µM		
Cc1ccc(Nc2nc(NCc3ccccc3)c3ccccc3n2)cc1F [V-7]	0.9 ± 0.2 µM	5.2 ± 1.2 µM		
COc1cccc2c(NCc3ccccc3N(C)C)nc(N3CCOc4ccccc43)nc12 [XII-9]			47 ± 22 µM	4.5 ± 0.5 µM
Cc1c(Cl)cccc1Nc1nc(N)nc(CCl)n1 [XVI]	18 ± 8 µM	5.9 ± 1 µM		
Cc1cccc(-c2nc(NCc3ccc(F)cc3)c3ccccc3n2)c1 [I-24]	15 ± 2 µM	12 ± 0.8 µM		
Ic1cccc(Nc2nc(NCc3ccccc3)c3ccccc3n2)c1 [II-21]	5.2 ± 1.9 µM	36 ± 4 µM		
Brc1ccc2c(NCc3ccccc3)nc(NCc3ccccc3)nc2c1 [VI-16]			22 ± 4 µM	10 ± 2 µM
Fc1cccc2c(NCc3ccccc3)nc(NCc3ccccc3)nc12 [VI-10]	3.1 ± 0.5 µM	18 ± 2 µM		
CCc1nc2ccccc2n1CC(=O)OCC(=O)C(C#N)=C1Nc2ccccc2N1 [XIX]	14 ± 6 µM	7.2 ± 1.1 µM		
Clc1ccc(CNc2nc(NCc3ccccc3)c3ccccc3n2)cc1Cl [IV-17]	3 ± 0.5 µM	1.9 ± 0.2 µM		
Fc1ccccc1-c1nc(NCc2ccccc2Cl)c2ccccc2n1 [Cpd I-16]			26 ± 12 µM	15 ± 3 µM
COc1cccc2c(NCc3ccccc3)nc(NCc3ccccc3)nc12 [VI-5, N2,N4-dibenzyl-8-methoxyquinazoline-2,4-diamine]	0.6 ± 0.06 µM	10 ± 2 µM		
Clc1cc(Cl)cc(Nc2nc(NCc3ccccc3)c3ccccc3n2)c1 [II-19]	8.2 ± 0.3 µM	13 ± 1 µM		
Clc1ccc2c(NCc3ccccc3)nc(NCc3ccccc3)nc2c1 [VI-12]	5.5 ± 0.9 µM	6.3 ± 0.9 µM		
Brc1cccc2c(NCc3ccccc3)nc(NCc3ccccc3)nc12 [V1-9]	3.3 ± 0.9 µM	30 ± 2 µM		
COc1cccc2c(NCc3ccccc3)nc(NCc3cncs3)nc12 [XI-15]	11 ± 1 µM	10 ± 3 µM		

Compound	IC50 (p97; [2])	IC50 [1, 3]	IC50 (p97; p97 ATPase assay)	IC50 [1, 4]
Brc1ccc(CNc2nc(NCc3ccccc3)c3ccccc3n2)cc1 [IV-4]	4.3 ± 0.9 µM	3.9 ± 0.3 µM		
c1ccc(CNc2nc(N3CCOc4ccccc43)nc3c(-c4ccccc4)cccc23)cc1 [VII-8]	3.5 ± 0.6 µM	5 ± 0.9 µM		
Fc1cccc2nc(NCc3ccccc3)nc(NCc3ccccc3)c12 [VI-2]	1.2 ± 0.3 µM	13 ± 2 µM		
c1ccc(-c2nc(N3CCc4ccccc4C3)c3ccccc3n2)cc1 [Cpd I-35]			> 30 µM	19 ± 5 µM
COc1cccc2c(NCC3CCCCC3)nc(N3CCOc4ccccc43)nc12 [XII-6]	7.4 ± 0.9 µM	8.2 ± 1 µM		
CC(C)c1ccc(Nc2nc(N)nc(CCl)n2)cc1 [XIV]	15 ± 5 µM	14 ± 2.4 µM		
Brc1ccccc1CNc1nc(NCc2ccccc2)c2ccccc2n1 [IV-9]	2 ± 0.3 µM	3.8 ± 0.7 µM		
Oc1cccc2c(NCc3ccccc3)nc(N3CCOc4ccccc43)nc12 [VII-7]	1.2 ± 0.3 µM	7.7 ± 1.7 µM		
COc1cccc2c(NCc3ccccc3)nc(Nc3cc(C)cc(F)c3)nc12 [XI-18]	1.5 ± 0.2 µM	7.1 ± 0.5 µM		
COc1cccc2c(NCc3ccccc3)nc(-n3c(=O)oc4ccccc43)nc12 [VII-17]	0.11 ± 0.03 µM	5 ± 1 µM		
COCCOc1cccc2c(NCc3ccccc3)nc(N3CCOc4ccccc43)nc12 [VII-14]	0.6 ± 0.03 µM	6.5 ± 0.7 µM		
COc1cccc2c(NCc3ccccc3)nc(N3CCNc4ccccc43)nc12 [VII-5]	0.9 ± 0.1 µM	3.7 ± 0.2 µM		
Clc1ccc(CNc2nc(-c3ccccc3)nc3ccccc23)cc1 [Cpd I-15]			> 30 µM	15 ± 3 µM
Fc1ccc(CNc2nc(-c3ccc(Cl)cc3)nc3ccccc23)cc1 [I-23]	8 ± 0.2 µM	20 ± 5 µM		
Nc1nc(CCl)nc(Nc2ccc(Cl)c(Cl)c2)n1 [XVII]	15 ± 4 µM	5.7 ± 0.8 µM		
